Results as given in US20260193274A1, “AKT1 MODULATORS” (Alterome Therapeutics, Inc., priority 2022, published 2026).

Target: T1, AKT1-E17K (Homo sapiens, UniProt P31749, E17K)
T1 construct: host or cells: HEK-293 (ATCC CRL-1573)
Test: NanoBRET Target Engagement (TE) Assay
Assay type: cell-based
Conditions: full length AKT E17K NanoLuc fusion in transfected HEK-293 cells; 2 hr equilibration with tracer and compound
From the text: NanoBRET is a highly specific and validated cell-based technique for assessing target engagement (Vasta et al., 2018, Cell Chem Biol. 25(2):206-214). The NanoBRET™ Target Engagement (TE) Intracellular Kinase Assays are based on the NanoBRET™ System (Promega Corporation), an energy transfer technique designed to measure molecular proximity in living cells. The NanoBRET™ TE Assays measure the apparent affinity of test compounds by competitive displacement of the NanoBRET™ tracer compound, which is a cell permeable molecule engineered to be reversibly bound to a NanoLuc® luciferase-kinase fusion expressed in cells. For compound screening, when a test compound binds to the selected kinase, the BRET signal is attenuated. For kinase inhibitors in particular, intracellular target selectivity is fundamental to pharmacological mechanism and allows the proteins of interest to be in the correct cellular confirmation. Although non-cell-based techniques have been developed to measure kinase binding or enzymatic inhibition with accuracy and precision, such approaches can fail to accurately predict engagement of the full-length target protein in the more complex and biologically relevant cellular context (Knight and Shokat, 2005, Chem. Biol. 12, 621-637; Smyth and Collins, 2009, J. Chem. Biol. 2, 131-151). […] Briefly, HEK-293 cells (ATCC Cat #CRL-1573) were used for transfection purposes using FuGENE HD Transfection Reagent (Promega Cat #E2311). All cells were evaluated for viability prior to transfection and optimization of the transfection was done prior to experimentation. Greater than 95% viability was used for all experiments. Following transfection, cells were washed and resuspended in Opti-MEM. NanoBRET assays were performed in white, 384-well plates (Corning) at a density of 2×10^5 cells/well. All example compounds were prepared as concentrated stock solutions in DMSO (Sigma-Aldrich). Compounds are dissolved in DMSO to make 10 mM stock solution. Example compounds were transferred as 40 μL of 10 mM stock solution to a 384 pp-plate (LABCYTE, PP-0200) and diluted in 3-fold, 10-point dilution via transferring […] by Apricot liquid handler. A Labcyte ECHO 550 compound dispenser was used to facilitate compound transfer directly to cells. Cells were equilibrated for 2 hr with energy transfer probes and example compound prior to BRET measurements. The AKTE17K (Promega Cat #NV2421) as well as specific probe (NanoBRET tracer, Promega Cat #N264B) was prepared at a concentration of 20× in tracer dilution buffer (12.5 mM HEPES, 31.25% PEG-400, pH 7.5). For target engagement analysis, the energy transfer probes were added to the cells at concentrations optimized for the target in question (AKT E17K). Following compound incubation, NanoBRET NanoGlo Substrate (Promega Cat #N157D) and Extracellular Nanoluc Inhibitor (Promega Cat #N235C) was added according to the manufacturer's recommended protocol, and luminescence was measured on Envision Reader (Perkin Elmer) Multimode Luminometer equipped with 450 nmBPfilter (donor) and 600 nmLPfilter (acceptor), using 0.5 s integration time. Milli-BRET units (mBU) are calculated by multiplying the raw BRET values by 1000. Apparent tracer affinity values (EC50) were determined using the sigmoidal dose-response (variable slope). Competitive displacement data were then plotted and data were fit to determine the EC50 value for each example compound.

T1 sequence (P31749 whole entry E17K): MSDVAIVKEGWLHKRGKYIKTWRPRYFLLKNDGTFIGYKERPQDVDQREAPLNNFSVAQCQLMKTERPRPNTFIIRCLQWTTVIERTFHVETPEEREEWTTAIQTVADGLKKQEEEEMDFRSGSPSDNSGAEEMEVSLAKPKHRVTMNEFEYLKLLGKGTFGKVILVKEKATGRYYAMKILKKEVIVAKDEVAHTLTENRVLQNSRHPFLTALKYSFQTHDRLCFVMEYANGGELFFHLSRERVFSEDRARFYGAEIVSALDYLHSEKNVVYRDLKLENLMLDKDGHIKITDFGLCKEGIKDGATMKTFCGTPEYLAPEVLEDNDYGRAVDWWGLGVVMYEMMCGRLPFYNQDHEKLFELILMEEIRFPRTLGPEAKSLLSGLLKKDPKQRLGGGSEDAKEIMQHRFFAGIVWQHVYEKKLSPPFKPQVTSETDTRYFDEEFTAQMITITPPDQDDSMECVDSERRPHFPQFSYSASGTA

Compound | IC50
N#CNC1CCN(Cc2ccc(-n3c(-c4cccnc4N)nc4cccnc43)cc2)CC1 [Example 1, N-(1-(4-(2-(2-Aminopyridin-3-yl)-3H-imidazo[4,5-b]pyridin-3-yl)benzyl)piperidin-4-yl)cyanamide] | > 600 nM
N#CN1CCN(Cc2ccc(-n3c(-c4cccnc4N)nc4ccc(-c5ccccc5)nc43)cc2)CC1 [Example 2, 4-(4-(2-(2-Aminopyridin-3-yl)-5-phenyl-3H-imidazo[4,5-b]pyridin-3-yl)benzyl)piperazine-1-carbonitrile] | > 600 nM
N#CNC1CCN(Cc2ccc(-n3c(-c4cccnc4N)nc4ccc(-c5ccccc5)nc43)cc2)CC1 [Example 3, N-(1-(4-(2-(2-Aminopyridin-3-yl)-5-phenyl-3H-imidazo[4,5-b]pyridin-3-yl)benzyl)piperidin-4-yl)cyanamide] | < 15 nM
CC(=O)Nc1cccc(-c2ccc3nc(-c4cccnc4N)n(-c4ccc(CN5CCC(NC#N)CC5)cc4)c3n2)c1 [Example 4, N-(3-(2-(2-Aminopyridin-3-yl)-3-(4-((4-cyanamidopiperidin-1-yl)methyl)phenyl)-3H-imidazo[4,5-b]pyridin-5-yl)phenyl)acetamide] | < 15 nM
N#CN1CC2(C1)CN(Cc1ccc(-n3c(-c4cccnc4N)nc4ccc(-c5ccccc5)nc43)cc1)C2 [Example 5, 6-(4-(2-(2-Aminopyridin-3-yl)-5-phenyl-3H-imidazo[4,5-b]pyridin-3-yl)benzyl)-2,6-diazaspiro[3.3]heptane-2-carbonitrile] | 15 to 60 nM
N#CN[C@H]1CCCN(Cc2ccc(-n3c(-c4cccnc4N)nc4ccc(-c5ccccc5)nc43)cc2)C1 [Example 6, (S)—N-(1-(4-(2-(2-Aminopyridin-3-yl)-5-phenyl-3H-imidazo[4,5-b]pyridin-3-yl)benzyl)piperidin-3-yl)cyanamide] | 15 to 60 nM
N#CN[C@H]1CCN(Cc2ccc(-n3c(-c4cccnc4N)nc4ccc(-c5ccccc5)nc43)cc2)C1 [Example 7, (S)—N-(1-(4-(2-(2-Aminopyridin-3-yl)-5-phenyl-3H-imidazo[4,5-b]pyridin-3-yl)benzyl)pyrrolidin-3-yl)cyanamide] | < 15 nM
N#CNC1CCC2(CC1)CCN(Cc1ccc(-n3c(-c4cccnc4N)nc4ccc(-c5ccccc5)nc43)cc1)C2 (centres unmarked) [Example 8, N-(2-(4-(2-(2-Aminopyridin-3-yl)-5-phenyl-3H-imidazo[4,5-b]pyridin-3-yl)benzyl)-2-azaspiro[4.5]decan-8-yl)cyanamide] | 60 to 600 nM
N#CN[C@@H]1CCCN(Cc2ccc(-n3c(-c4cccnc4N)nc4ccc(-c5ccccc5)nc43)cc2)C1 [Example 9, (R)—N-(1-(4-(2-(2-Aminopyridin-3-yl)-5-phenyl-3H-imidazo[4,5-b]pyridin-3-yl)benzyl)piperidin-3-yl)cyanamide] | 15 to 60 nM
N#CN[C@@H]1CCN(Cc2ccc(-n3c(-c4cccnc4N)nc4ccc(-c5ccccc5)nc43)cc2)C1 [Example 10, (R)—N-(1-(4-(2-(2-Aminopyridin-3-yl)-5-phenyl-3H-imidazo[4,5-b]pyridin-3-yl)benzyl)pyrrolidin-3-yl)cyanamide] | < 15 nM
N#CNC1CCN(Cc2ccc(-n3c(-c4cccnc4N)nc4cc(-c5ccccc5)cnc43)cc2)CC1 [Example 11, N-(1-(4-(2-(2-Aminopyridin-3-yl)-6-phenyl-3H-imidazo[4,5-b]pyridin-3-yl)benzyl)piperidin-4-yl)cyanamide] | 60 to 600 nM
N#CN1CCCN(Cc2ccc(-n3c(-c4cccnc4N)nc4ccc(-c5ccccc5)nc43)cc2)CC1 [Example 12, 4-(4-(2-(2-Aminopyridin-3-yl)-5-phenyl-3H-imidazo[4,5-b]pyridin-3-yl)benzyl)-1,4-diazepane-1-carbonitrile] | 60 to 600 nM
N#CNC1CC2(CCN(Cc3ccc(-n4c(-c5cccnc5N)nc5ccc(-c6ccccc6)nc54)cc3)CC2)C1 [Example 13, N-(7-(4-(2-(2-Aminopyridin-3-yl)-5-phenyl-3H-imidazo[4,5-b]pyridin-3-yl)benzyl)-7-azaspiro[3.5]nonan-2-yl)cyanamide] | < 15 nM
CN(C#N)C1CCN(Cc2ccc(-n3c(-c4cccnc4N)nc4ccc(-c5ccccc5)nc43)cc2)CC1 [Example 14, N-(1-(4-(2-(2-Aminopyridin-3-yl)-5-phenyl-3H-imidazo[4,5-b]pyridin-3-yl)benzyl)piperidin-4-yl)-N-methylcyanamide] | 15 to 60 nM
N#CN1CC2(CCN(Cc3ccc(-n4c(-c5cccnc5N)nc5ccc(-c6ccccc6)nc54)cc3)CC2)C1 [Example 15, 7-(4-(2-(2-Aminopyridin-3-yl)-5-phenyl-3H-imidazo[4,5-b]pyridin-3-yl)benzyl)-2,7-diazaspiro[3.5]nonane-2-carbonitrile] | 15 to 60 nM
N#CN1CCC2(CCN(Cc3ccc(-n4c(-c5cccnc5N)nc5ccc(-c6ccccc6)nc54)cc3)CC2)C1 [Example 16, 8-(4-(2-(2-Aminopyridin-3-yl)-5-phenyl-3H-imidazo[4,5-b]pyridin-3-yl)benzyl)-2,8-diazaspiro[4.5]decane-2-carbonitrile] | < 15 nM
N#CN1CCC2(CC1)CCN(Cc1ccc(-n3c(-c4cccnc4N)nc4ccc(-c5ccccc5)nc43)cc1)CC2 [Example 17, 9-(4-(2-(2-Aminopyridin-3-yl)-5-phenyl-3H-imidazo[4,5-b]pyridin-3-yl)benzyl)-3,9-diazaspiro[5.5]undecane-3-carbonitrile] | 15 to 60 nM
N#CN1CC2(CCN(Cc3ccc(-n4c(-c5cccnc5N)nc5ccc(-c6ccccc6)nc54)cc3)C2)C1 [Example 18, 6-(4-(2-(2-Aminopyridin-3-yl)-5-phenyl-3H-imidazo[4,5-b]pyridin-3-yl)benzyl)-2,6-diazaspiro[3.4]octane-2-carbonitrile] | 60 to 600 nM
N#CN1CCC2(CCN(Cc3ccc(-n4c(-c5cccnc5N)nc5ccc(-c6ccccc6)nc54)cc3)C2)C1 (centres unmarked) [Example 19, 7-(4-(2-(2-Aminopyridin-3-yl)-5-phenyl-3H-imidazo[4,5-b]pyridin-3-yl)benzyl)-2,7-diazaspiro[4.4]nonane-2-carbonitrile] | 15 to 60 nM
N#CN1CCC2(CC1)CCN(Cc1ccc(-n3c(-c4cccnc4N)nc4ccc(-c5ccccc5)nc43)cc1)C2 [Example 20, 2-(4-(2-(2-Aminopyridin-3-yl)-5-phenyl-3H-imidazo[4,5-b]pyridin-3-yl)benzyl)-2,8-diazaspiro[4.5]decane-8-carbonitrile] | 15 to 60 nM
N#CN1CCCC2(CCN(Cc3ccc(-n4c(-c5cccnc5N)nc5ccc(-c6ccccc6)nc54)cc3)C2)C1 (centres unmarked) [Example 21, 2-(4-(2-(2-Aminopyridin-3-yl)-5-phenyl-3H-imidazo[4,5-b]pyridin-3-yl)benzyl)-2,7-diazaspiro[4.5]decane-7-carbonitrile] | > 600 nM
N#CN1CCC2(CC1)CN(Cc1ccc(-n3c(-c4cccnc4N)nc4ccc(-c5ccccc5)nc43)cc1)C2 [Example 22, 2-(4-(2-(2-Aminopyridin-3-yl)-5-phenyl-3H-imidazo[4,5-b]pyridin-3-yl)benzyl)-2,7-diazaspiro[3.5]nonane-7-carbonitrile] | 60 to 600 nM
N#CN1CC[C@@]2(CCN(Cc3ccc(-n4c(-c5cccnc5N)nc5ccc(-c6ccccc6)nc54)cc3)C2)C1 [Example 23, (R)-7-(4-(2-(2-Aminopyridin-3-yl)-5-phenyl-3H-imidazo[4,5-b]pyridin-3-yl)benzyl)-2,7-diazaspiro[4.4]nonane-2-carbonitrile] | < 15 nM
